Assay results taken from patent publication US20250304700A1, “ANTI-BLOOD DENDRITIC CELL ANTIGEN 2 ANTIBODIES AND USES THEREOF” (Biogen MA Inc., priority 2012, published 2025).
“Also recorded” adds a separate entry of the source.

Legend:
surface human BDCA2 = target: T1, surface human BDCA2 (Homo sapiens, UniProt Q8WTT0); test: Direct binding dilution titration FACS on surface human BDCA2; details: transfected cells co-expressing BDCA2 and FcεRIγ
T1 construct: stably transfected DG44 CHO cells co-expressing full-length BDCA2 and FcεRIγcDNAs (human or cynomolgus monkey); expressed in transfected cells
T1 sequence (Q8WTT0 1-213): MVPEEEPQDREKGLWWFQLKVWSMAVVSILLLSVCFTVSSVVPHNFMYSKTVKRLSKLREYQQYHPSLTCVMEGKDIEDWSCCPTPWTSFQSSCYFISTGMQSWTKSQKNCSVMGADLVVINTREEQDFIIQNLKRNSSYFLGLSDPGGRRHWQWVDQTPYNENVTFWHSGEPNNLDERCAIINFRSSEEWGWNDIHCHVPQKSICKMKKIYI
T1 sequence (P30273 19-86 partner): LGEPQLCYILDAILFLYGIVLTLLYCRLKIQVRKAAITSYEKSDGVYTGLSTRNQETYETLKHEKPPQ
Experimental: Expression vectors (ch24F4 heavy chain vectors pYL670 or pYL672 and ch24F4 light chain vector pYL671) were co-transfected into 293-EBNA cells and transfected cells were tested for antibody secretion and specificity (empty vector- and a molecularly cloned irrelevant mAb vector-transfected cells served as controls). […] Direct FACS binding to surface human BDCA2 confirmed the specificity of ch24F4. The EC50 binding of both variants of ch24F4 was equivalent to that of the murine 24F4 mAb by direct binding to surface expressed human BDCA2 by dilution titration FACS assay. Stable CHO cell lines secreting ch24F4-huIgG1, kappa mAb and agly ch24F4-huIgG4/G1 hybrid kappa mAb were produced by co-transfection with pYL672/pYL671 and pYL670/pYL671, respectively.
Site-directed mutagenesis was performed using Agilent's QuikChange II mutagenesis kit following the manufacturer's recommended protocol. The C95S variant was constructed using the mutagenic primer 5′ GCAACCTATTACTGTCAACAAAGTAATGAGGATCCTCGGAC 3′ (SEQ ID NO: 38) and its reverse complement, which introduced a new HincII site, producing plasmid pEAG2678. The C95T variant was constructed using the mutagenic primer 5′ CAACCTATTACTGTCAGCAAACTAATGAAGATCCTCGGACGTTCG 3′ (SEQ ID NO: 39) and its reverse complement, which removed a BamHI site, producing plasmid pEAG2679. […]

[1] = system: TLR9-induced IFNα production in whole blood; test: Pre-incubation (internalization) before TLR9 stimulation, IFNα in whole blood; type: cell-based, human; details: up to 9 hours pre-incubation, then 200 μg/mL CpG-A for 18 hours
Experimental: The following experiment was conducted to ascertain whether BIIB059-mediated receptor internalization affected IFN inhibition. […] At each time point after pre-incubation, cells were challenged with 200 μg/mL CpGA and incubated for an additional 18 hours at 37° C. Supernatants were collected for use in IFNα ELISA assays (PBL InterferonSource). The assays were performed according to the manufacturer's protocol. FIG. 19B is a representative experiment of 3 independent experiments performed. […] In addition, we have previously shown that bivalent binding was necessary for anti-BDCA2 mediated IFN inhibition.
At each time point after pre-incubation, cells were stimulated with 200 μg/mL TLR9 ligand (CpG-A) and incubated for an additional 18 hours at 37° C. Supernatants were collected for use in IFNα ELISA assays (PBL InterferonSource).

[2] = system: Sm/RNP immune complexes-induced cytokines by pDCs; test: Cytokines from Sm/RNP immune complex stimulated purified pDCs; type: cell-based, human; details: 10 μg/mL BIIB059, 18 hours
Experimental: Specifically, Sm/RNP immune complexes (IC) were pre-formed by mixing sm-RNP from calf thymus and anti-RNP antibodies purified form sera of SLE patients for 1 h in serum-free medium. pDCs from human healthy donors were isolated using a two-step magnetic bead separation procedure (MACS kit, Miltenyi Biotec). […] The plates containing pDCs were incubated for 18 hours at 37° C. and supernatants collected for use in ELISA or multiplex assays to measure concentrations of inflammatory cytokines and chemokines.

[3] = system: TLR9-induced cytokines and chemokines by purified pDCs; test: ELISA/multiplex of cytokines from CpG-A stimulated purified pDCs; type: cell-based, human
Experimental: Shown in FIG. 17 are the amounts of secreted IFNα and IL-6 measured from a representative donor of three tested healthy donors.
BDCA2 ligation suppresses the ability of pDCs to produce type I IFNs in response to TLR ligands (see FIG. 16). […] Specifically, pDCs from human healthy donors were isolated using a two-step magnetic bead separation procedure (MACS kit, Miltenyi Biotec). […] The plates containing pDCs were incubated for 18 hours at 37° C. and supernatants collected for use in ELISA or multiplex assays to measure concentrations of inflammatory cytokines and chemokines.

[4] = 5 μM CPG-A, increasing concentrations of BIIB059

direct binding to surface human BDCA2, in words (surface human BDCA2) | Substance | effect of pre-incubation on IFNα inhibition [1] | Sm/RNP immune complexes-induced IFNα, TNFα and IL-6 [2] | chemokines induced by Sm/RNP immune complexes (CCL3, CCL4) [2] | TLR9-induced IFNα, TNFα, IL-6, CCL3, CCL4, CCL5 ([3]; 1 μM CPG-A, 10 μg/mL antibody, 18 hours) | IFNα production [3, 4] | IL-6 production [3, 4] | ability to inhibit CPG-A-induced IFNα by pDCs ([3]; BIIB059 compared with 24F4A-Agly)
“best” variants | 24F4S: hu24F4 H4/L1 with C95S light chain; differs from BIIB059 by 1 amino acid residue |  |  |  |  |  |  | 
 | BIIB059: humanized IgG1 anti-BDCA2 antibody, mature heavy chain SEQ ID NO: 4 and mature light chain SEQ ID NO: 3 | did not affect IFN inhibition; also recorded: did not alter the ability of BIIB059 to inhibit | potently inhibited | also inhibited | potently inhibited | potently inhibited | greatly reduced | undistinguishable
